A word on the IC50: it is the concentration needed to halve the response being measured. Higher therefore signals a need for much substance.

The assay has as its target T1, Bromodomain-containing protein 9 (Homo sapiens, UniProt Q9H8M2).
T1 sequence (Q9H8M2 whole entry): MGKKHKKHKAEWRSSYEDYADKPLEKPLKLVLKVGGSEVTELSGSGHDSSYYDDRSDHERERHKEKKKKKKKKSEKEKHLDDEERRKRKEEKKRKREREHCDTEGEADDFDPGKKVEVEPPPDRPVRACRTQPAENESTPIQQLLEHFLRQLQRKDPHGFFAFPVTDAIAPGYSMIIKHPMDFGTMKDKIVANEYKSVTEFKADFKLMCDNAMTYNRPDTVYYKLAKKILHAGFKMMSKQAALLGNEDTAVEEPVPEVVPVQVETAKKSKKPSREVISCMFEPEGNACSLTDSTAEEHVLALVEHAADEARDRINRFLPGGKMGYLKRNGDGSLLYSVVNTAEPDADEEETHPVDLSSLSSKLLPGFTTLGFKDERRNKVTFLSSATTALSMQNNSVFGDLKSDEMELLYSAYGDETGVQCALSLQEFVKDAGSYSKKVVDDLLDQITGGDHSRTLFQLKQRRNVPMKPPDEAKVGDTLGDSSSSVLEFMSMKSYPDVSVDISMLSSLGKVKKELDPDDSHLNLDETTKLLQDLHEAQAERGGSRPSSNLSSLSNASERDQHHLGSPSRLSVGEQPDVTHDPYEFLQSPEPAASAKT
The assay can be described thus: IC50 measurements for inhibitors using BRD9 AlphaLisa Binding Assay: His/Flag epitope tagged BRD9134-239 was cloned, expressed, and purified to homogeneity. […] After 20 minutes incubation at room temperature AlphaLisa Streptavidin Acceptor Beads (Perkin-AL125C) and AlphaLisa Nickel donor beads (Perkin AS 10 ID) were added to a final concentration of 15 ug/mL each. (Bead proximity is the source of the signal in Alpha formats.)
For `C=CCn1cc(-c2cc(OC)c(C(=O)N3CCOCC3)cc2OC)c2cc(C)[nH]c2c1=O`, the IC50 stood at 9 nM. In other words, the single-digit nanomolar range. The molecule `CC(C)(O)c1ccc(-c2cn(CCC3CC3)c(=O)c3[nH]ccc23)cc1` registered an IC50 of 280 nM. Compared with the last molecule, the IC50 is about 31-fold higher. The result for `C/C=C/Cn1cc(-c2cc(C(=O)NCC)ccc2OC)c2cc[nH]c2c1=O` reads 28 nM; that for `CCCCn1cc(-c2cc(C#N)ccc2OC)c2cc[nH]c2c1=O`, 46 nM.
